The source of these data is patent publication US11739162B2, “Side chain modified peptoids useful as structure-stabilizing coatings for biomaterials” (Brookhaven Science Associates, LLC, priority 2019, dated 2023).

In one data set the test system is 15-bp dsDNA. The data set is described as follows: Real-time SYBR Green I (SG) fluorescence assay of duplex DNA (dsDNA). The note with it: dsDNA/peptoid complexes. It counts as binding. The procedure: A15-bp dsDNA was designed with a sequence of 5′-[…]-3′ (SEQ ID NO: 124) with a complementary sequence of 5′-[…]-3′ (SEQ ID NO: 125). The dsDNA (500 μM) was formed in PBS (1×) buffer and cooled from 70° C. to room temperature over 11 h. Next, the dsDNA (100 nM) solution was mixed with different peptoid solutions at varied concentrations in PBS overnight at room temperature. Prior to measuring fluorescence, SG (1×) was added to the dsDNA/peptoid mixtures for 2 h at room temperature. The fluorescence signal was recorded from 37° C. to 85° C. at a step of 0.03° C./sec by LightCycler 480. The concentrations of only peptoids in solution were the same as those in the N/P of 8, which were 3.43 μM for PE1, PE3, PE4, PE5, and 1.85 μM for PE2, respectively.

The subject of data set [1] is octahedra-shaped DNA origamis (OCs). The data set is described as follows: Negative-stained TEM imaging of peptoid-coated OCs. It counts as physicochemical. The following applies: N/P 0.5, 0.25, 0.1; TAE 12.5 mM MgCl2. As for the experimental part: Preparation of peptoid-coated OCs. The synthesized peptoids were dissolved in deionized water at a concentration of 10 mM and stored at 4° C.
Negative-stained TEM imaging. […] In brief, […] of the peptoid-coated OC (5-10 nM) solution was dropped on a carbon film for 1-3 min and the residual liquid was removed with a piece of filter paper. After that, the grid was washed with […] of deionized water followed by staining with […] of 2 wt % uranyl acetate for 15 sec. The excess liquid was removed with filter papers. TEM imaging was performed on a JEOL 1400 TEM with an acceleration voltage of 120 kV.

For the next data set, the system named is deoxyribonuclease I (DN). The data set is described as follows: Nuclease degradation assays (AGE, TEM, DLS). The following applies: DN 15 μg/mL, 30 min, 37° C., N/P 0.5.
A further data set relates to trypsin. The data set is described as follows: Fluorescence assay for tryptic digestion of BSA. Type of data set: biochemical. The following applies: trypsin 50 nM, 37° C. As for the experimental part:
First, NHS-fluorescein (240 μM) and NHS-PEG-azide (60 μM) was mixed with BSA (10 μM) in PBS (1×) buffer for 3 h at room temperature. The solution was purified 8 times with PBS using a 50 kDa filter and centrifuged at 3000 rcf and at 4° C. Next, the DBCO-modified single-stranded DNA (ssHy, 5′-[…]/3DBCO/, 250 μM) (SEQ ID NO: 1) was mixed with the BSA solution (10 μM) overnight (˜12 h) at 4° C. The solution was purified 8 times with PBS using a 50 kDa filter and centrifuged at 3000 rcf at 4° C. Finally, the surface-modified BSA (200 nM) was added to the OCs (40 nM) and the solution was cooled down from 45° C. to room temperature over a time course of 60 h. The solution was purified 2 times with TAE (1×) buffer containing 12.5 mM MgCl2 using a 100 kDa filter and centrifuged at 400 rcf and at 4° C.
(1) The fluorescein-modified BSA (80 nM) solution without OCs was incubated at 37° C. in the presence or absence of trypsin (50 nM) overnight ˜12 h prior to fluorescence measurement. Fluorescence spectra were measured with excitation and emission wavelengths of 490 nm and 510-750 nm, respectively and a step size of 2 nm. […] The fluorescence kinetics were measured at λex and λem of 490 nm and 525 nm, respectively and time interval of 3 min. Fluorescence spectra were measured after 15 h at excitation and emission wavelengths of 490 nm and 510-800 nm, respectively and a step size of 2 nm.

Method for deoxyribonuclease I (DN): The samples were incubated at 37° C. for 30 min at 650 rpm on a thermal cycler (Eppendorf) and characterized using AGE and negative-stained TEM imaging.

For `COCCOCCOCCN(CC(N)=O)C(=O)CN(CCOC)C(=O)CN(CCOCCOCCOC)C(=O)CN(CCN)C(=O)CN(CCOCCOCCOC)C(=O)CN(CCOC)C(=O)CN(CCOCCOCCOC)C(=O)CN(CCN)C(=O)CN(CCOCCOCCOC)C(=O)CN(CCOC)C(=O)CN(CCOCCOCCOC)C(=O)CN(CCN)C(=O)CN(CCOCCOCCOC)C(=O)CN(CCOC)C(=O)CN(CCOCCOCCOC)C(=O)CN(CCN)C(=O)CN(CCOCCOCCOC)C(=O)CN(CCOC)C(=O)CN(CCOCCOCCOC)C(=O)CN(CCN)C(=O)CN(CCOCCOCCOC)C(=O)CN(CCOC)C(=O)CN(CCOCCOCCOC)C(=O)CNCCN` [PE3, Nae6-Nte12 brush], the “relative performance in raising the Tm of the dsDNA (ranking)” value in the data set with 15-bp dsDNA is “Tm (dsDNA/PE3)>Tm (dsDNA/PE5)”. Also, the “morphology / aggregation of peptoid-coated OCs (TEM)” value in data set [1] is given as “less aggregation than PE1”. In the data set with deoxyribonuclease I (DN), the “OC structure after incubation with DN (TEM)” value is on record as “some extents of capability to preserve the origami structure”.

On to `COCCOCCOCCN(CC(N)=O)C(=O)CN(CCOCCOCCOC)C(=O)CN(CCOCCOCCOC)C(=O)CN(CCOCCOCCOC)C(=O)CN(CCOCCOCCOC)C(=O)CN(CCOCCOCCOC)C(=O)CN(CCN)C(=O)CN(CCN)C(=O)CN(CCN)C(=O)CN(CCN)C(=O)CN(CCN)C(=O)CNCCN` [PE4, Nae6-Nte6 block], for which, in the data set with 15-bp dsDNA, the “relative performance in raising the Tm of the dsDNA (ranking)” value is “Tm (dsDNA/PE2)>Tm (dsDNA/PE1)>Tm (dsDNA/PE4)”. In addition, the “OC structure after incubation with DN (TEM)” value in the data set with deoxyribonuclease I (DN) was “some extents of capability to preserve the origami structure”.

Consider “fluorescein labeled BSA: bovine serum albumin modified with fluorescein, trypsin substrate [reference compound]”, for which, in the data set with trypsin, the “fluorescence enhancement of fluorescein labeled BSA in the presence of trypsin” value is given as 85%.
